According to patent US20130310374A1, “Substituted Imidazoquinoline Derivatives” (PIRAMAL ENTERPRISES LIMITED`, priority 2010, published 2013):

How the values were obtained:
KCL22 = test: Cytotoxicity propidium iodide assay, KCL22; format: cell-based; conditions: Homo sapiens, KCL-22; KCL22 (CML), 48 hours treatment; read-out: IC50 Values in μM, C6f
Method: (§1) The assay was designed as in the reference, Anticancer Drugs, 2002, 13, 1-8, the disclosure of which is incorporated herein by reference for the teaching of the assay.
(§2) Cells from cell lines (ATCC) as mentioned in the table given below were seeded at a density of 3000 cells/well in a white opaque 96-well plate. Following incubation at 37° C./5% CO2 for a period of 18-24 hours, the cells were treated with various concentrations (stock solution was prepared in DMSO and subsequent dilutions were made in media as per ATCC guidelines) of the compounds of the present invention for a period of 48 hours. At the end of treatment, the culture medium was discarded, the cells were washed with 1×PBS and 200 μL of […] propidium iodide was added to each well. […] For analysis, the plates were warmed to RT, allowed to thaw and were read in PoleStar fluorimeter with the fluorescence setting. The percentage of viable cells in the non-treated set of wells was considered to be 100 and the percentage viability following treatment was calculated accordingly. IC50 values were calculated from graphs plotted using these percentages. IC50 values for certain compounds of present invention are depicted in Table 1 and % Inhibition of certain compounds of present invention are depicted in Table 2.

K562 = test: Cytotoxicity propidium iodide assay, K562; format: cell-based; conditions: Homo sapiens; K562 (CML), 48 hours treatment; read-out: IC50 Values in μM, C6a
Method: as §1
(§3) Cells from cell lines (ATCC) as mentioned in the table given below were seeded at a density of 3000 cells/well in a white opaque 96-well plate. Following incubation at 37° C./5% CO2 for a period of 18-24 hours, the cells were treated with various concentrations (stock solution was prepared in DMSO and subsequent dilutions were made in media as per ATCC guidelines) of the compounds of the present invention for a period of 48 hours. At the end of treatment, the culture medium was discarded, the cells were washed with 1×PBS and 200 μL of […] propidium iodide was added to each well. The plates were frozen at […] overnight. For analysis, the plates were warmed to RT, allowed to thaw and were read in PoleStar fluorimeter with the fluorescence setting. The percentage of viable cells in the non-treated set of wells was considered to be 100 and the percentage viability following treatment was calculated accordingly. IC50 values were calculated from graphs plotted using these percentages. IC50 values for certain compounds of present invention are depicted in Table 1 and % Inhibition of certain compounds of present invention are depicted in Table 2.

KCL22/SR = test: Cytotoxicity propidium iodide assay, KCL22/SR; format: cell-based; conditions: Homo sapiens, KCL-22; KCL22/SR (CML), 48 hours treatment; read-out: IC50 Values in μM, C6e
Method: as §1, §3

T315I = test: Cytotoxicity propidium iodide assay, T315I; format: cell-based; conditions: T315I (CML), 48 hours treatment; read-out: IC50 Values in μM, C6b
Method: as §1, §3

PC3 = test: Cytotoxicity propidium iodide assay, PC3; format: cell-based, human; conditions: Homo sapiens, PC-3; for IC50: PC3 (prostate), 48 hours treatment, read-out: IC50 Values in μM, C2a
Method: as §1, §3

A2780 = test: Cytotoxicity propidium iodide assay, A2780; format: cell-based; conditions: Homo sapiens; for IC50: A2780 (ovarian), 48 hours treatment, read-out: IC50 Values in μM, C1a
Method: as §1, §3

KU812/SR = test: Cytotoxicity propidium iodide assay, KU812/SR; format: cell-based; conditions: Homo sapiens; KU812/SR (CML), 48 hours treatment; read-out: IC50 Values in μM, C6c
Method: as §1, §3

MCF7 = test: Cytotoxicity propidium iodide assay, MCF7; format: cell-based; conditions: Homo sapiens; MCF7 (breast), 48 hours treatment; read-out: IC50 Values in μM, C3d
Method: as §1, §3

U 87 MG = test: Cytotoxicity propidium iodide assay, U 87 MG; format: cell-based; conditions: Homo sapiens; U 87 MG (glioblastoma), 48 hours treatment; read-out: IC50 Values in μM, C5c
Method: as §1, §2

BT 549 = test: Cytotoxicity propidium iodide assay, BT 549; format: cell-based; conditions: Homo sapiens; BT 549 (breast), 48 hours treatment; read-out: IC50 Values in μM, C3c
Method: as §1, §3

BxPC3 = test: Cytotoxicity propidium iodide assay, BxPC3; format: cell-based; conditions: Homo sapiens, BXPC-3; BxPC3 (pancreatic), 48 hours treatment; read-out: IC50 Values in μM, C4c
Method: as §1, §3

LN18 = test: Cytotoxicity propidium iodide assay, LN18; format: cell-based; conditions: Homo sapiens, LN-18; LN18 (glioblastoma), 48 hours treatment; read-out: IC50 Values in μM, C5b
Method: as §1, §3

PI3K/mTOR pathway = test: Western blot analysis in A2780 ovarian cancer cell line; format: cell-based; conditions: A2780 cells treated for 1 hour; FIG. 1A-1E
Method: Protocol for Western Blot Analysis
A2780 ovarian cancer cell line (ATCC) were grown to approximately 70% confluence in 100-mm tissue culture dishes and then treated for 1 hour with […] compounds of Example 2, 3, 5, 16, 19, 55 and 59. Total protein was extracted using cell lysis buffer (NaCl […], NP40 0.67%, Tris-Cl, pH 7.5, 67 mM) containing protease inhibitors and phosphatase inhibitors (Beta-glycerol phosphate 40 mM, DTT 1 mM, NaF 0.4 mM, Sodium-Orthovanadate 0.4 mM) at 4° C. for 1 hour. Cell lysates were then centrifuged at 2×10^4 g for 10 minutes at 4° C., and the protein concentration of the supernatant was quantified using the Bradford's method (BioRad, USA). For SDS-PAGE, 50 μg protein was loaded in SDS-PAGE, transferred to a polyvinylidene difluoride membrane (Bio-Rad, USA) and blocked with 5 mL buffer [5% skim milk and 0.1% Tween] for 1 hour 30 minutes. Membrane were probed with primary antibody (all primary antibodies were from cell signaling with 1:1000 in TBST solution) of respective protein at 4° C. overnight. Peroxidase-labeled anti-rabbit or anti-mouse antibodies (Santacruze, USA) were used as the secondary antibody. Actin and respective whole protein levels were used as the control for protein loading. Protein antigens were detected using Chemiluminescent Substrate (Thermo scientific, USA) and exposed on Kodak station.

AsPC 1 = test: Cytotoxicity propidium iodide assay, AsPC 1; format: cell-based; conditions: Homo sapiens, ASPC1; AsPC 1 (pancreatic), 48 hours treatment; read-out: IC50 Values in μM, C4b
Method: as §1, §2

MDA MB 468 = test: Cytotoxicity propidium iodide assay, MDA MB 468; format: cell-based; conditions: Homo sapiens; MDA MB 468 (breast), 48 hours treatment; read-out: IC50 Values in μM, C3b
Method: as §1, §3

MDA MB 231 = test: Cytotoxicity propidium iodide assay, MDA MB 231; format: cell-based; conditions: Homo sapiens; MDA MB 231 (breast), 48 hours treatment; read-out: IC50 Values in μM, C3a
Method: as §1, §2

LN229 = test: Cytotoxicity propidium iodide assay, LN229; format: cell-based; conditions: Homo sapiens, LN-229; LN229 (glioblastoma), 48 hours treatment; read-out: IC50 Values in μM, C5a
Method: as §1, §3

IFN-γ [1] = test: Con-A-induced IFN-γ production from hPBMC; format: cell-based; conditions: Homo sapiens, concanavalin A 1 μg/mL, 18 hours
Method: Con-A-Induced IFN-γ Production from hPBMC
(§4) Peripheral blood was collected from normal healthy volunteers after informed consent. Peripheral blood mononuclear cells (hPBMC) were harvested using Ficoll-Hypaque density gradient centrifugation (1.077 g/mL; Sigma Aldrich). hPBMCs were resuspended in RPMI 1640 culture medium (Gibco BRL, Pasley, UK) containing 10% FCS, 100 U/mL penicillin (Sigma Chemical Co. St Louis, Mo.) and […] streptomycin (Sigma Chemical Co. St Louis, Mo.) at 1×10^6 cells/mL. 1×10^5 hPBMCs/well were pre-treated with 0.025 μM of compounds of present invention or 0.5% DMSO (vehicle control) for 30 minutes at 37° C. Subsequently, these cells were stimulated with 1 μg/mL concanavalin A (Sigma Chemical Co., St. Louis, Mo.). Following 18 hours of incubation at 37° C., supernatants were collected and stored at −70° C. until assayed for human IFN-γ by ELISA as described by the manufacturer (OptiEIA ELISA sets, BD BioSciences). In every experiment, cyclosporin (1 μM) was used as a positive control for inhibiting induced IFN-γ production. In all experiments, the toxicity of test compounds was ascertained, in parallel, using the MTS (3-(4,5-dimethylthiazol-2-yl)-5-(3-carboxymethoxyphenyl)-2-(4-sulfonyl)-2H-tetrazolium) assay as described in Am. J. Physiol. Cell Physiol., 2003, 285, C813-C822.

hPBMC [2] = test: MTS toxicity assay in parallel to Con-A-induced IFN-γ assay; format: cell-based, human; conditions: Con-A experiment
Method: as §4

TNF-α = test: Anti-CD3 mAb and anti-CD28 mAb-induced cytokine production assay, TNF-α; format: cell-based; conditions: Homo sapiens, hPBMC, anti-CD3/anti-CD28, 18 hours
Method: (§5) Anti-CD3 mAb and Anti-CD28 mAb-Induced Cytokine Production Assay
(§6) Preparation of anti-CD3/anti-CD28 coated plates: 96 well plates were coated with goat anti-mouse IgG, Fc (Millipore) at a concentration of 16.5 μg/mL in coating buffer ([…] NaHCO3, 3.56 g Na2CO3, pH 9.5). Following overnight incubation at 4° C., the plates were washed and then incubated with anti-CD3 (3.5 μg/mL; R&D Systems) and anti-CD28 (35 ng/mL; R&D Systems) cocktail for 3 hours. Subsequently, the plates were washed, and used for hPBMC stimulation.
(§7) hPBMC stimulation: Peripheral blood was collected from normal healthy volunteers after informed consent. Peripheral blood mononuclear cells (hPBMC) were harvested using Ficoll-Hypaque density gradient centrifugation (1.077 g/mL; Sigma Aldrich). hPBMCs were resuspended in RPMI 1640 culture medium (Gibco BRL, Pasley, UK) containing 10% FCS, 100 U/mL penicillin (Sigma Chemical Co. St Louis, Mo.) and […] streptomycin (Sigma Chemical Co. St Louis, Mo.) at 1.25×10^6 cells/mL of assay medium. 2.5×10^5 hPBMCs were added per well of 96-well plate coated with or without anti-CD3/anti-CD28 mAbs. Simultaneously, 0.025 μM of compounds of the present invention or 0.5% DMSO (vehicle control) were added to appropriate wells. The cells were then incubated for 18 hours at 37° C., 5% CO2 following which supernatants were collected, stored at […] and assayed later for TNF-α, IL-6 and IFN-γ by ELISA (OptiEIA ELISA sets; BD Biosciences). In every experiment, each condition was run in triplicate wells. In all experiments, the toxicity of test compounds was ascertained, in parallel, using the MTS (3-(4,5-dimethylthiazol-2-yl)-5-(3-carboxymethoxyphenyl)-2-(4-sulfonyl)-2H-tetrazolium) assay as described in Am. J. Physiol. Cell Physiol., 2003, 285, C813-C822.

hPBMC [3] = test: MTS toxicity assay in parallel to anti-CD3/anti-CD28 cytokine assay; format: cell-based, human; conditions: anti-CD3/anti-CD28 experiment
Method: as §7

IL-6 = test: Anti-CD3 mAb and anti-CD28 mAb-induced cytokine production assay, IL-6; format: cell-based; conditions: Homo sapiens, hPBMC, anti-CD3/anti-CD28, 18 hours
Method: as §5, §6, §7

IFN-γ [4] = test: Anti-CD3 mAb and anti-CD28 mAb-induced cytokine production assay, IFN-γ; format: cell-based; conditions: Homo sapiens, hPBMC, anti-CD3/anti-CD28, 18 hours
Method: as §5, §6, §7

Row | SMILES | IC50 (K562) | IC50 (KCL22/SR) | IC50 (T315I) | IC50 (PC3) | IC50 (A2780) | IC50 (KU812/SR) | IC50 (U 87 MG) | IC50 (BT 549) | IC50 (LN18) | IC50 (LN229) | other results
1 | Cn1c(=O)n(-c2ccc(C(C)(C)C#N)nc2)c2c3cc(-c4cccnc4)ccc3ncc21 [Example 1, 2-Methyl-2-(5-(3-methyl-2-oxo-8-(pyridin-3-yl)-2,3-dihydro-1H-imidazo[4,5-c]quinolin-1-yl)pyridin-2-yl)propanenitrile] | 0.9 µM | 0.62 µM | 3.3 µM | 0.22 µM | 0.4 µM | 0.96 µM | – | – | – | – | IC50 (KCL22): 1.18 µM
2 | Cn1c(=O)n(-c2ccc(C(F)(F)F)nc2)c2c3cc(-c4cnc(N)c(C(F)(F)F)c4)ccc3ncc21 [Example 55, 8-(6-Amino-5-(trifluoromethyl)pyridin-3-yl)-3-methyl-1-(6-(trifluoromethyl)pyridin-3-yl)-1H-imidazo[4,5-c]quinolin-2(3H)-one] | 0.056 µM | 0.06 µM | 0.19 µM | 1.6 µM | 0.009 µM | 0.23 µM | 7.92 µM | 0.17 µM | 0.282 µM | 0.096 µM | IC50 (MCF7): 0.06 µM; IC50 (BxPC3): 0.027 µM; Akt, S6 and 4EBP1 phosphorylation (Western blot) (PI3K/mTOR pathway): inhibit Akt, S6 and 4EBP1 phosphorylation; IC50 (AsPC 1): 0.04 µM; IC50 (MDA MB 468): 0.075 µM; IC50 (MDA MB 231): 0.035 µM
3 | Cn1c(=O)n(-c2ccc(C(F)(F)F)nc2)c2c3cc(-c4ccc(F)nc4F)ccc3ncc21 [Example 57, 8-(2,6-Difluoropyridin-3-yl)-3-methyl-1-(6-(trifluoromethyl)pyridin-3-yl)-1H-imidazo [4,5-c]quinolin-2(3H)-one] | – | – | – | – | – | – | – | – | – | – | inhibition at 0.025 µM (IFN-γ [1]): 88%; % Toxicity at 0.025 μM (hPBMC [2]): 14%; inhibition at 0.025 µM (TNF-α): 80%; % Toxicity at 0.025 μM (hPBMC [3]): 14%; inhibition at 0.025 µM (IL-6): 94%; inhibition at 0.025 µM (IFN-γ [4]): 88%
4 | Cn1c(=O)n(-c2ccc(Cl)nc2Cl)c2c3cc(-c4cccnc4)ccc3ncc21 [Example 62, 1-(2,6-Dichloropyridin-3-yl)-3-methyl-8-(pyridin-3-yl)-1H-imidazo[4,5-c]quinolin-2(3H)-one] | 0.144 µM | 0.62 µM | – | – | – | 0.84 µM | 9.92 µM | 1.5 µM | 1.08 µM | 1.03 µM | inhibition at 1 µM (PC3; PC3, 1 μM, 48 hours, read-out: % Inhibition at 1 μM, C2a): 28%; inhibition at 1 µM (A2780; A2780, 1 μM, 48 hours, read-out: % Inhibition at 1 μM, C1a): 69%
